US20230365576A1, “BRM Targeting Compounds And Associated Methods Of Use” (Prelude Therapeutics Incorporated, priority 2022, published 2023)

Columns and labels:
SMARCA4 = target: T1, SMARCA4 (Homo sapiens, UniProt P51532); assay: SMARCA4 HiBiT degradation assay in HeLa cells; type: cell-based; details: 18 hours; for Dmax: HeLa
T1 construct: SMARCA4-HiBiT knock-in Hela monoclonal cell (CS3023226) were purchased from Promega; host or cells: HeLa (CRISPR HiBiT knock-in monoclonal line, heterozygous)
Summary of the method: (§1)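 Degradation measured as HiBiT luminescence (Nano-Glo lytic reagent) after 18 h compound exposure at 37° C. Cells were HeLa clones carrying heterozygous HiBiT tags on SMARCA2 or SMARCA4, 2500 per well; compounds at 3-fold serial dilution from 10 μM.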

SMARCA2 = target: T2, SMARCA2 (Homo sapiens, UniProt P51531); assay: SMARCA2 HiBiT degradation assay in HeLa cells; type: cell-based; details: 18 hours; for DC50: read-out: SMARCA2 IC50; for Dmax: HeLa
T2 construct: SMARCA2-HiBiT knock-in Hela monoclonal cell (CS302366); host or cells: HeLa (CRISPR HiBiT knock-in monoclonal line, heterozygous)
Summary of the method: as §1

T1 sequence (P51532 whole entry): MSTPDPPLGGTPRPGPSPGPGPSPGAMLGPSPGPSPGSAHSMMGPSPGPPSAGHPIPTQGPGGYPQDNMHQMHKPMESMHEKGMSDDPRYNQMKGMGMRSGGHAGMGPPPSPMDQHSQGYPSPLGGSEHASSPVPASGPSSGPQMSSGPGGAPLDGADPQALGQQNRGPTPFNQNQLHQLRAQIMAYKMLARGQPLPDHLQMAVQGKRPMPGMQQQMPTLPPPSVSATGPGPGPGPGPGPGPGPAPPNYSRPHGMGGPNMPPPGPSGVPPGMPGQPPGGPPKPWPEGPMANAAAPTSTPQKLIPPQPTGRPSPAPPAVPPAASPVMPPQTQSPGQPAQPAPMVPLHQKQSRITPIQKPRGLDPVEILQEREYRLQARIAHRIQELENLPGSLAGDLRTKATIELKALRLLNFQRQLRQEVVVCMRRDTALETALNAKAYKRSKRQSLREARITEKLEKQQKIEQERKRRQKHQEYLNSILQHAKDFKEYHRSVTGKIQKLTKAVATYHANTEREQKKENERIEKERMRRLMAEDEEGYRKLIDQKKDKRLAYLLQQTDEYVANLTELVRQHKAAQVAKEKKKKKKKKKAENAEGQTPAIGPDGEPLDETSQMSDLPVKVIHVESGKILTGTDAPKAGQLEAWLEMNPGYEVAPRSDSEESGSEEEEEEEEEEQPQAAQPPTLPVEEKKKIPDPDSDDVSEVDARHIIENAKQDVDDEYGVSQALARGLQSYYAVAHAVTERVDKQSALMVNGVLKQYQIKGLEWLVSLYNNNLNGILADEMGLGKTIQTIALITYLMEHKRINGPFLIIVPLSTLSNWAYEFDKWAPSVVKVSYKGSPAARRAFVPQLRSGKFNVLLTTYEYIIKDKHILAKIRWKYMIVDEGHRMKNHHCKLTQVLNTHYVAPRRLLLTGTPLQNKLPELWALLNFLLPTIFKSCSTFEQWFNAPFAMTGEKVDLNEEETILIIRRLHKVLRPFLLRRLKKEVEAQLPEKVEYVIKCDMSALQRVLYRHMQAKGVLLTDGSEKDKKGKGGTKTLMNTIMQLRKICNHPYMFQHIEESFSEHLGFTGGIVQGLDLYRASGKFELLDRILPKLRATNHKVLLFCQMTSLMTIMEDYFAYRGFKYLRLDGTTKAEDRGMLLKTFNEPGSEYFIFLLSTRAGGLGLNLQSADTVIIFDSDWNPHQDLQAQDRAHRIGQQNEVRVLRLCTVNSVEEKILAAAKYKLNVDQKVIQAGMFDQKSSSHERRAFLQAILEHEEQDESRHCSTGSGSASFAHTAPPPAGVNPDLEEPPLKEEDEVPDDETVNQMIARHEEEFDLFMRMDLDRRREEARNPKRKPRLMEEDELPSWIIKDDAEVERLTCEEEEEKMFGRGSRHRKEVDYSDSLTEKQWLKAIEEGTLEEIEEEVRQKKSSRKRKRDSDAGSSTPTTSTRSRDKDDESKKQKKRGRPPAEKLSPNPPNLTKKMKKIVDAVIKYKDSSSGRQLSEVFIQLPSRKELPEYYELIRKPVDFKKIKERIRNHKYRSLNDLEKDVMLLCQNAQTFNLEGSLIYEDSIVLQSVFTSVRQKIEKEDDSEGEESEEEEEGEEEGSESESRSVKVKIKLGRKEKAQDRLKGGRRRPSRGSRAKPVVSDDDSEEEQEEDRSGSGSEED
T2 sequence (P51531 whole entry): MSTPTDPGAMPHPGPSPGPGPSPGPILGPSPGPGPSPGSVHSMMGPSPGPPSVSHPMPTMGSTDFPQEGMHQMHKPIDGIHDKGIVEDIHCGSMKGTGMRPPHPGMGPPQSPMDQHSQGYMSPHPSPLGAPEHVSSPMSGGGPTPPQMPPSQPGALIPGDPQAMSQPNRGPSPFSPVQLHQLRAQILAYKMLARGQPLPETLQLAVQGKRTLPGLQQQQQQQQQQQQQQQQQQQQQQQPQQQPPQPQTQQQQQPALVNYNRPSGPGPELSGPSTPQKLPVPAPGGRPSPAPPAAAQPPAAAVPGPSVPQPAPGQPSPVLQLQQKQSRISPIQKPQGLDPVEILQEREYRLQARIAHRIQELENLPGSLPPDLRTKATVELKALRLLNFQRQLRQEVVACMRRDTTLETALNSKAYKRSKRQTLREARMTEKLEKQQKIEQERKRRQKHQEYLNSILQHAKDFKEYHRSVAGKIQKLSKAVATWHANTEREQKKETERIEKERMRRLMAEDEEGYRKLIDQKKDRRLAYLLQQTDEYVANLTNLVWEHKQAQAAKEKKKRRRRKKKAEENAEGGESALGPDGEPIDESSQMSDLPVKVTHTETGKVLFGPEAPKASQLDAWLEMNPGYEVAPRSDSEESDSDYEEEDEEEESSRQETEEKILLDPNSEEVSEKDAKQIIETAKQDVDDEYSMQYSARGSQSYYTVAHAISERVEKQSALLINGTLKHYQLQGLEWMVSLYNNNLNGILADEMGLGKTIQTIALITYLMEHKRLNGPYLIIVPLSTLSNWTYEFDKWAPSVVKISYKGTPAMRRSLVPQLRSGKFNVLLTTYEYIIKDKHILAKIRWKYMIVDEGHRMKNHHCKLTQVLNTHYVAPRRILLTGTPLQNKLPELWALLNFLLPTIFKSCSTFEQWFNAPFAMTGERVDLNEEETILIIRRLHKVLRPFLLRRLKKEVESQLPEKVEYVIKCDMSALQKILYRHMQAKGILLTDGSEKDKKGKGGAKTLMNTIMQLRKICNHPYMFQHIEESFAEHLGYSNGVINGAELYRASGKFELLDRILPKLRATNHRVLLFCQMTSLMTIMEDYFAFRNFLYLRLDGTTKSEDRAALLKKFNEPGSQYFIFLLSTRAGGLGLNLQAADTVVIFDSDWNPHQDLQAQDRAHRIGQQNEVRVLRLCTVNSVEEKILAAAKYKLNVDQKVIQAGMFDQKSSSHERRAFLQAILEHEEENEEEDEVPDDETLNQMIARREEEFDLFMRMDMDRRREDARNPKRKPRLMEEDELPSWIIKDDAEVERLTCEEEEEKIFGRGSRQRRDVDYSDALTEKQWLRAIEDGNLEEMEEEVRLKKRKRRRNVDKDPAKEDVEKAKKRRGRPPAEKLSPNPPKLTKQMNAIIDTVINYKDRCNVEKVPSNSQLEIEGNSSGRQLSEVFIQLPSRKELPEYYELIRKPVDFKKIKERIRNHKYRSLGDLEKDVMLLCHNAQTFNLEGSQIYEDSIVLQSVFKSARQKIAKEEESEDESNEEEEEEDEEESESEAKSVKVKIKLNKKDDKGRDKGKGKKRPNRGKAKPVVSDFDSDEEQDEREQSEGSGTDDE

Structure (SMILES) | DC50 (SMARCA4) | Dmax (SMARCA4) | DC50 (SMARCA2) | Dmax (SMARCA2) | SMARCA4 DMax % (SMARCA4) | SMARCA2 DMax % (SMARCA2) | Dmax (SMARCA4; given as a number)
C[C@@H]1CN(CC2CN(c3ccc4c(c3)C(=O)N(C3CCC(=O)NC3=O)C4)C2)C[C@H](C)N1C(=O)N1CCN2c3cc(-c4cccc(F)c4O)nnc3NC[C@H]2C1 (stereo partly drawn) [Example 2, 3-(6-(3-(((3R,5S)-4-((S)-2-(3-fluoro-2-hydroxyphenyl)-6,6a,7,8,9,10-hexahydro-5H-pyrazino[1′,2′:4,5]pyrazino[2,3-c]pyridazine-8-carbonyl)-3,5-dimethylpiperazin-1-yl)methyl)azetidin-1-yl)-1-oxoisoindolin-2-yl)piperidine-2,6-dione] | < 0.1 µM | < 50% | < 0.1 µM | > 75% |  |  | 
CCC12CNc3nnc(-c4cc(F)cc(F)c4O)cc3N1CCN(C(=O)C1(F)CCC(CN3CCN(c4ccc5c(c4)C(=O)N([C@H]4CCC(=O)NC4=O)C5)CC3)CC1)C2 (single isomer, unassigned) [Example 102] | < 0.1 µM |  | < 0.1 µM | > 75% | A (A=Dmax>75%) |  | 
COCC12CNc3nnc(-c4cccc(F)c4O)cc3N1CCN(C(=O)N1CCN(CC3CCN(c4ccc5c(c4)C(=O)N([C@H]4CCC(=O)NC4=O)C5)CC3)CC1(C)C)C2 (single isomer, unassigned) [Example 93] | > 1 µM | < 50% | < 0.1 µM | > 75% |  |  | 
C[C@@H]1CN(CC2CCN(c3ccc4c(c3)C(=O)N(C3CCC(=O)NC3=O)C4)CC2)C[C@H](C)N1C(=O)N1CCN2c3cc(-c4cccc(F)c4O)nnc3NC[C@@]2(C(F)F)C1 (stereo partly drawn) [Example 69, 3-(6-(4-(((3R,5S)-4-((S)-6a-(difluoromethyl)-2-(3-fluoro-2-hydroxyphenyl)-6,6a,7,8,9,10-hexahydro-5H-pyrazino[1′,2′:4,5]pyrazino[2,3-c]pyridazine-8-carbonyl)-3,5-dimethylpiperazin-1-yl)methyl)piperidin-1-yl)-1-oxoisoindolin-2-yl)piperidine-2,6-dione] | > 1 µM | < 50% | < 0.1 µM | > 75% |  |  | 
CC1(C)CN(CC2CCN(c3ccc4c(c3)C(=O)N([C@H]3CCC(=O)NC3=O)C4)CC2)CCN1C(=O)N1CCN2c3cc(-c4cc(F)cc(F)c4O)nnc3NC[C@H]2C1 [Example 19, (S)-3-(6-(4-((4-((S)-2-(3,5-difluoro-2-hydroxyphenyl)-6,6a,7,8,9,10-hexahydro-5H-pyrazino[1′,2′:4,5]pyrazino[2,3-c]pyridazine-8-carbonyl)-3,3-dimethylpiperazin-1-yl)methyl)piperidin-1-yl)-1-oxoisoindolin-2-yl)piperidine-2,6-dione] | < 0.1 µM |  | < 0.1 µM | > 75% |  |  | 51%
CCC12CNc3nnc(-c4cc(F)cc(F)c4O)cc3N1CCN(C(=O)C1(F)CCN(CC3CCN(c4ccc5c(c4)C(=O)N([C@H]4CCC(=O)NC4=O)C5)CC3)CC1)C2 (single isomer, unassigned) [Example 110] | < 0.1 µM |  | < 0.1 µM |  |  |  | 
CCC12CNc3nnc(-c4cc(F)cc(F)c4O)cc3N1CCN(C(=O)N1[C@H](C)CN(CC3CCN(c4ccc5c(c4)C(=O)N(C4CCC(=O)NC4=O)C5)CC3)C[C@@H]1C)C2 (single isomer, unassigned) [Example 85] | < 0.1 µM |  | < 0.1 µM |  |  |  | 
C[C@@H]1C[C@H](CN2CCN(c3ccc4c(c3)C(=O)N([C@H]3CCC(=O)NC3=O)C4)CC2)C[C@H](C)N1C(=O)N1CCN2c3cc(-c4cccc(F)c4O)nnc3NCC2(C(F)(F)F)C1 (single isomer, unassigned) [Example 99] | < 0.1 µM |  | < 0.1 µM |  | B (B=50%<Dmax≤75%) | A (A=Dmax>75%) | 
CCC12CNc3nnc(-c4cccc(F)c4O)cc3N1CCN(C(=O)C1(F)CCN(CC3CCN(c4ccc5c(c4)C(=O)N([C@H]4CCC(=O)NC4=O)C5)CC3)CC1)C2 (single isomer, unassigned) [Example 108] | < 0.1 µM |  | < 0.1 µM |  | A (A=Dmax>75%) | A (A=Dmax>75%) | 
C[C@@H]1C[C@H](CN2CCN(c3ccc4c(c3)C(=O)N([C@H]3CCC(=O)NC3=O)C4)CC2)C[C@H](C)N1C(=O)N1CCN2c3cc(-c4cccc(F)c4O)nnc3NCC2(C)C1 (single isomer, unassigned) [Example 120] | < 0.1 µM | > 75% | < 0.1 µM | > 75% |  |  | 
C[C@@H]1CN(CC2CN(c3ccc4c(c3)C(=O)N(C3CCC(=O)NC3=O)C4)C2)C[C@H](C)N1C(=O)N1CCN2c3cc(-c4cc(F)cc(F)c4O)nnc3NC[C@H]2C1 (stereo partly drawn) [Example 20, 3-(6-(3-(((3R,5S)-4-((S)-2-(3,5-difluoro-2-hydroxyphenyl)-6,6a,7,8,9,10-hexahydro-5H-pyrazino[1′,2′:4,5]pyrazino[2,3-c]pyridazine-8-carbonyl)-3,5-dimethylpiperazin-1-yl)methyl)azetidin-1-yl)-1-oxoisoindolin-2-yl)piperidine-2,6-dione] | < 0.1 µM | < 50% | < 0.1 µM | > 75% |  |  | 
C[C@@H]1CN(CC2CCN(c3ccc4c(c3)C(=O)N(C3CCC(=O)NC3=O)C4)CC2)C[C@@H](C)N1C(=O)N1CCN2c3cc(-c4cccc(F)c4O)nnc3NCC2(C)C1 (single isomer, unassigned) [Example 13] | < 0.1 µM | < 50% | < 0.1 µM | > 75% |  |  | 

Next, values leading:

DC50 (SMARCA4) | Dmax (SMARCA4) | DC50 (SMARCA2) | Dmax (SMARCA2) | SMARCA4 DMax % (SMARCA4) | SMARCA2 DMax % (SMARCA2) | Dmax (SMARCA4; given as a number) | Structure (SMILES)
< 0.1 µM |  | < 0.1 µM |  | B (B=50%<Dmax≤75%) | A (A=Dmax>75%) |  | CC1(C)CC(CN2CCN(c3ccc4c(c3)C(=O)N([C@H]3CCC(=O)NC3=O)C4)CC2)CCN1C(=O)N1CCN2c3cc(-c4cccc(F)c4O)nnc3NCC2(C)C1 (single isomer, unassigned) [Example 124]
< 0.1 µM |  | < 0.1 µM | > 75% | A (A=Dmax>75%) |  |  | C[C@@H]1CN(CC2CCN(c3ccc4c(c3)C(=O)N([C@H]3CCC(=O)NC3=O)C4)CC2)C[C@@H](C)N1C(=O)N1CCN2c3cc(-c4cccc(F)c4O)nnc3NCC2(C(F)(F)F)C1 (single isomer, unassigned) [Example 96]
< 0.1 µM | < 50% | < 0.1 µM | > 75% |  |  |  | C[C@H]1CN2c3cc(-c4cc(F)cc(F)c4O)nnc3NC[C@H]2CN1C[C@H]1[C@@H]2CN(C[C@H]3CCN(c4ccc5c(c4)C(=O)N(C4CCC(=O)NC4=O)C5)C[C@@H]3F)C[C@@H]21 (single isomer, unassigned) [Example 39]
< 0.1 µM | 50 to 75% | < 0.1 µM | 50 to 75% |  |  |  | C[C@@H]1CN(CC2CCN(c3ccc4c(c3)C(=O)N([C@H]3CCC(=O)NC3=O)C4)CC2)C[C@@H](C)N1C(=O)N1CCN2c3cc(-c4cccc(F)c4O)nnc3NC[C@]2(C(F)F)C1 [Example 67, (S)-3-(6-(4-(((3R,5R)-4-((R)-6a-(difluoromethyl)-2-(3-fluoro-2-hydroxyphenyl)-6,6a,7,8,9,10-hexahydro-5H-pyrazino[1′,2′:4,5]pyrazino[2,3-c]pyridazine-8-carbonyl)-3,5-dimethylpiperazin-1-yl)methyl)piperidin-1-yl)-1-oxoisoindolin-2-yl)piperidine-2,6-dione]
< 0.1 µM |  | < 0.1 µM |  | C (C=Dmax<50%) | A (A=Dmax>75%) |  | CC1(C)CN(CC2CCN(c3ccc4c(c3)C(=O)N(C3CCC(=O)NC3=O)C4)CC2)CCN1C(=O)N1CCN2c3cc(-c4cccc(F)c4O)nnc3NCC2(C)C1 (single isomer, unassigned) [Example 10, 3-(6-(4-((4-(2-(3-fluoro-2-hydroxyphenyl)-6a-methyl-6,6a,7,8,9,10-hexahydro-5H-pyrazino[1′,2′:4,5]pyrazino[2,3-c]pyridazine-8-carbonyl)-3,3-dimethylpiperazin-1-yl)methyl)piperidin-1-yl)-1-oxoisoindolin-2-yl)piperidine-2,6-dione]
< 0.1 µM | 50 to 75% | < 0.1 µM | > 75% |  |  |  | CCC12CNc3nnc(-c4cccc(F)c4O)cc3N1CCN(C(=O)N1CCN(CC3CCN(c4ccc5c(c4)C(=O)N([C@H]4CCC(=O)NC4=O)C5)CC3)CC1(C)C)C2 (single isomer, unassigned) [Example 74]
< 0.1 µM | > 75% | < 0.1 µM | > 75% |  |  |  | C[C@@H]1CN(CC2CCN(c3ccc4c(c3)C(=O)N(C3CCC(=O)NC3=O)C4)CC2)C[C@@H](C)N1C(=O)N1CCN2c3cc(-c4cc(F)cc(F)c4O)nnc3NCC2(C)C1 (stereo partly drawn) [Example 33, 3-(6-(4-(((3R,5R)-4-(2-(3,5-difluoro-2-hydroxyphenyl)-6a-methyl-6,6a,7,8,9,10-hexahydro-5H-pyrazino[1′,2′:4,5]pyrazino[2,3-c]pyridazine-8-carbonyl)-3,5-dimethylpiperazin-1-yl)methyl)piperidin-1-yl)-1-oxoisoindolin-2-yl)piperidine-2,6-dione]
< 0.1 µM |  | < 0.1 µM |  |  |  |  | C[C@@H]1CN(CC2CCN(c3ccc4c(c3)C(=O)N(C3CCC(=O)NC3=O)C4)CC2)C[C@H](C)N1C(=O)N1CCN2c3cc(-c4cc(F)cc(F)c4O)nnc3NCC2(C)C1 (single isomer, unassigned) [Example 64]
